# Results taken from paper PMC4394992 (Journal of controlled release : official journal of the …, 2015).
# Assays:
# [1] = tested on: 4T1 cells; test: Cell clonogenic assay, drug alone; format: cell-based, murine; details: 4T1, 3 µM
# [2] = tested on: 4T1 murine breast cancer cells; test: Cell proliferation MTS assay; format: cell-based; details: Mus musculus, 96 h
# [3] = tested on: Miapaca-2 cells; test: Cell clonogenic assay, drug alone; format: cell-based, human; details: Miapaca-2, 3 µM
structure (smiles),measurement,setting,value
"CC1=C2C[C@H]3[C@@H](CC=C4C[C@@H](O)CC[C@@]43C)[C@@H]2CC[C@]12O[C@@H]1C[C@H](C)CN[C@H]1[C@H]2C [free CPA, cyclopamine]",Reduction of colony numbers,[1],6.7% ± 6.1
same,IC50,[2],11.3 ± 1.2 µM
same,Reduction of colony numbers,[3],17.7% ± 4.3
